Experiments:
[1] = human
[2] = Highest frequency of moderate liver toxicity observed during clinical trials, expressed as a percentage. [column '% BIOL' in source]; conditions: human
[3] = human, serum, 4383 h
[4] = human; remark: listed apart in the source
[5] = human, serum
[6] = human; remark: listed apart in the source
[7] = human; remark: listed apart in the source
[8] = human; remark: listed apart in the source
[9] = Times to onset, minimal and maximal, observed in the indexed observations. [column 'DELAI' in source]; conditions: human
[10] = human; remark: listed apart in the source
[11] = human; remark: listed apart in the source
[12] = Highest frequency of acute liver toxicity observed during clinical trials, expressed as a percentage. [column '% AIGUE' in source]; conditions: human
[13] = human; remark: listed apart in the source
[14] = human, serum; remark: listed apart in the source
[15] = human; remark: listed apart in the source
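Throughout, for Hepatotoxicity (association with vascular disease): count of indexed literature references reporting vascular liver injury in humans, e.g. peliosis hepatitis, hepatic veno-occlusive disease or Budd-Chiari syndrome.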
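Throughout, for Hepatotoxicity (benign tumour): value is a count of indexed literature references citing a benign tumour confirmed by histopathology.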
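Throughout, for Hepatotoxicity (choleostasis): human cholestatic liver injury, shown by histopathology or by peak ALT or AST elevation over alkaline phosphatase ratio below 2, value counts indexed literature reports.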
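Throughout, for Hepatotoxicity (chronic liver disease): chronic liver injury confirmed by histopathology or persistently raised serum aminotransferase activity beyond 6 months, value given as the count of indexed literature references.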
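Throughout, for Hepatotoxicity (cirrhosis): value is a count of indexed literature references reporting cirrhosis confirmed by histopathology.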
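Throughout, for Hepatotoxicity (cytolytic): human cytolytic liver injury, shown by histopathology or by a ratio above 5 of peak ALT or AST elevation to alkaline phosphatase elevation, value counts indexed references.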
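Throughout, for Hepatotoxicity (granulomatous hepatitis): value is a count of indexed literature references reporting granulomatous liver disease confirmed by histopathology.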
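Throughout, for Hepatotoxicity (malignant tumour): malignant tumour confirmed by histopathology, value gives the count of indexed literature references reporting it.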
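Throughout, for Hepatotoxicity (severe hepatitis): human clinical data: severe hepatitis, meaning potentially life-threatening liver failure or clinically observed cases, the value counts how many indexed literature references report it.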
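Throughout, for Hepatotoxicity (steatosis): steatosis confirmed by histopathology, value is the count of indexed references.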

Row | Compound | Hepatotoxicity (cirrhosis) [1] | Hepatotoxicity (moderate) [2] [%] | Hepatotoxicity (chronic liver disease) [3] | Hepatotoxicity (association with vascular disease) [4] | Hepatotoxicity (acute) [5] | Hepatotoxicity (choleostasis) [6] | Hepatotoxicity (steatosis) [7] | Hepatotoxicity (cytolytic) [8] | Hepatotoxicity (time to onset) [9] | Hepatotoxicity (severe hepatitis) [10] | Hepatotoxicity (benign tumour) [11] | Hepatotoxicity (acute) [12] [%] | Hepatotoxicity (granulomatous hepatitis) [13] | Hepatotoxicity (moderate) [14] | Hepatotoxicity (malignant tumour) [15] | Hepatotoxicity (moderate) ([2]; Liver) [%] | Hepatotoxicity (severe hepatitis) ([10]; Liver) | Hepatotoxicity (acute) ([12]; Liver) [%]
1 | Cc1cccc(N2CC(CO)OC2=O)c1 (stereo not given) [TOLOXATONE] | 0 | 0 | 0 | 0 | 2 | 1 | 0 | 2 | 15 days - 10 months | 1 | 0 | 0 | 0 | 0 | 0 | – | – | –
2 | CC1(C)O[C@@H]2[C@@H](CO[C@@]3(COS(N)(=O)=O)OC(C)(C)O[C@@H]23)O1 [TOPIRAMATE] | 0 | 23 | 0 | 0 | 2 | 0 | 0 | 2 | 2 months - 4 months | 1 | 0 | 0 | 0 | 1 | 0 | – | – | –
3 | CN(C)CCOc1ccc(/C(=C(/CCCl)c2ccccc2)c2ccccc2)cc1 [TOREMIFENE] | 0 | 8.3 | 0 | 0 | 2 | 1 | 1 | 0 | 3 months | 0 | 0 | 6.1 | 0 | 4 | 0 | – | – | –
4 | CCOC(=O)[C@H](CCc1ccccc1)N[C@@H](C)C(=O)N1[C@H](C(=O)O)C[C@H]2CCCC[C@@H]21 [TRANDOLAPRIL] | 0 | 1.1 | 0 | 0 | 1 | 1 | 0 | 0 | 2 weeks | 0 | 0 | 0 | 0 | 2 | 0 | – | – | –
5 | NS(=O)(=O)c1cc2c(cc1Cl)NC(C(Cl)Cl)NS2(=O)=O (stereo not given) [TRICHLORMETHIAZIDE] | 0 | 0 | 0 | 0 | 0 | 0 | 0 | 0 | 1 week | 0 | 0 | 0 | 1 | 1 | 0 | – | – | –
6 | CSc1nc2cc(Cl)c(Oc3cccc(Cl)c3Cl)cc2[nH]1 [TRICLABENDAZOLE] | 0 | 0 | 0 | 0 | 1 | 1 | 0 | 0 | 3 days | 0 | 0 | 0.7 | 0 | 0 | 0 | – | – | –
7 | COc1ccc(CN2CCNCC2)c(OC)c1OC [TRIMETAZIDINE] | 0 | 0 | 0 | 0 | 1 | 1 | 0 | 0 | 2 weeks | 0 | 0 | 0 | 0 | 0 | 0 | – | – | –
8 | COc1cc(C(=O)NCc2ccc(OCCN(C)C)cc2)cc(OC)c1OC [TRIMETHOBENZAMIDE] | 0 | 0 | 0 | 0 | 2 | 1 | 0 | 2 | 5 days | 0 | 0 | 0 | 0 | 0 | 0 | – | – | –
9 | N[C@@H]1[C@H]2CN(c3nc4c(cc3F)c(=O)c(C(=O)O)cn4-c3ccc(F)cc3F)C[C@@H]12 [TROVAFLOXACIN] | 0 | – | 0 | 0 | 6 | 1 | 0 | 6 | 5 days - 4 weeks | – | 0 | – | 0 | 4 | 0 | 2.3 | 1 | 0
10 | CN[C@H](CC(C)C)C(=O)N[C@H]1C(=O)N[C@@H](CC(N)=O)C(=O)N[C@H]2C(=O)N[C@H]3C(=O)N[C@H](C(=O)N[C@H](C(=O)O)c4cc(O)cc(O)c4-c4cc3ccc4O)[C@H](O)c3ccc(c(Cl)c3)Oc3cc2cc(c3O[C@@H]2O[C@H](CO)[C@@H](O)[C@H](O)[C@H]2O[C@H]2C[C@](C)(N)[C@H](O)[C@H](C)O2)Oc2ccc(cc2Cl)[C@H]1O [VANCOMYCIN] | 0 | 50 | 0 | 0 | 1 | 0 | 0 | 1 | 4 days | 0 | 0 | 0 | 0 | 9 | 0 | – | – | –
11 | Nc1c2c(nc3ccccc13)CCCC2O (stereo not given) [VELNACRINE] | 0 | 35 | 0 | 0 | 2 | 0 | 0 | 2 | 4 weeks - 3 months | 0 | 0 | 7.3 | 0 | 8 | 0 | – | – | –
